Measured values: US20200079786A1, “ANALOGS OF […] AS SOLUBLE EPOXIDE HYDROLASE INHIBITORS” (UNIVERSITAT DE BARCELONA, priority 2015, published 2020)

How the values were obtained:
recombinant human sEH = molecular target: T1, recombinant human sEH (Homo sapiens, UniProt P34913); experiment: In vitro determination of sEH inhibition activity (fluorescent assay, PHOME substrate); type: biochemical; settings: mean ± Standard Error, min. three replicates, read-out: IC50 (nM) ± SE, sEH inhibition activity
T1 construct: purchased Cayman Chemical 10011669
T1 sequence (P34913 1-555): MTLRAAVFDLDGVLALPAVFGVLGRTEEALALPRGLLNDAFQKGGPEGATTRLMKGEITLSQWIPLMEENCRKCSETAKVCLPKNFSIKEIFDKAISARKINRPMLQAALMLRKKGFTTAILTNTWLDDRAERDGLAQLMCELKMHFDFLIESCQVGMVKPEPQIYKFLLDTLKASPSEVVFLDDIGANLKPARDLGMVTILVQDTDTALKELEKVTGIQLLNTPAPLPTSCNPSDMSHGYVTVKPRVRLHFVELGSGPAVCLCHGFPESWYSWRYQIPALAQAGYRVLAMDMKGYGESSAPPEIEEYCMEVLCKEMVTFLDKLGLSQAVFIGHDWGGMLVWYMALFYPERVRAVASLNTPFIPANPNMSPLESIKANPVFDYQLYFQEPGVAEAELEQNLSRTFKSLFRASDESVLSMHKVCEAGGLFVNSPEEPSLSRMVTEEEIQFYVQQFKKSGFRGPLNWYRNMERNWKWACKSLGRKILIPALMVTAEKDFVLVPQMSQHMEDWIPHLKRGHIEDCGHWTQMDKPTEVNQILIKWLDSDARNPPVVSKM
Description: 3-(Phenyl-oxiranyl)-acetic acid cyano-(6-methoxy-naphthalen-2-yl)-methyl ester (PHOME; from Cayman Chemical, item number 10009134; CAS 1028430-42-3); cf. N. M. Wolf et al., Anal. Biochem. 2006, vol. 355, pp. 71-80.
Solutions: • Assay buffer: Bis/Tris HCl 25 mM pH 7.0 containing 0.1 mg/mL of bovine serum albumin (BSA). • PHOME at 200 μM in DMSO. • Solution of recombinant human sEH (Cayman Chemical, item number 10011669), diluted with assay buffer. • Inhibitors dissolved in DMSO at appropriated concentrations.
In a black 96-well plate (Greiner Bio-One, item number 655900), fill the background wells with 90 μL and the positive control and inhibitor wells with 85 μL of assay buffer. Add 5 μL of DMSO to background and positive control wells, and then add 5 μL of inhibitor solution in inhibitor wells. Add 5 μL of the solution of hsEH to the positive control and inhibitor wells and mix several time. Prepare a 1/21 dilution of the solution of PHOME with assay buffer according to final volume required, and then add 105 μL of each well. Shake carefully the plate for 10 seconds and incubate for 5 minutes at room temperature. […] Results were obtained by regression analysis from at least three data points in a linear region of the curve. IC50 values are average of minimum three independent replicates.

[1] = Determination of cytotoxicity in THLE-2 cells (ATP viability); type: cell-based; settings: human; THLE-2 cells, 72 h exposure, 0-100 μM; read-out: LC50 (μM), cytotoxicity
Description: Cytotoxic effects of assayed compounds were tested using the immortalized human liver cell line THLE-2 (ATCC CRL-2706). Cells were cultured in BEGM medium (Clonetics # CC-4175) containing all the supplements kit except additional EGF and G418. Medium was completed by adding 0.7 μg/mL phosphoethanolamine, 0.5 ng/mL epidermal growth factor, antibiotics (penicillin and streptomycin) and 10% fetal bovine serum (FBS).
Cells were plated in 96-well black microplates at 10,000 cells/well density and were incubated at 37° C. (5% CO2, 95% humidity) for 24 h to allow the cells to adhere and form a monolayer. Test compounds were solubilized in 100% DMSO at a concentration curve way and then diluted with cell culture medium containing 10% DMSO. The final concentrations of the test compounds (1% DMSO) ranged from 0-100 μM in a final volume of 200 μL. Microplates were maintained at 37° C. (5% CO2, 95% humidity) during 3 days. Following this 72 h exposure to test compounds, cell viability in each well was determined by measuring the concentration of cellular adenosine triphosphate (ATP) using the ATP1Step Kit as described by the manufacturer (Perkin-Elmer). In a typical procedure, 50 μL of cell reagent is added to all wells of each test plate followed by incubation for 10 min at room temperature on an orbital shaker. ATP concentration was determined by reading chemical luminescence using the Envision plate reader (PerkinElmer). The percentage of viable cells relative to the non-drug treated controls was determined for each well and LC50 values were calculated as concentrations projected to kill 50% of the cells following a 72 h exposure, an average of minimum two independent replicates.

Huh-7 cells = experiment: Amelioration of palmitate-induced ER stress: ATF3, BiP and CHOP mRNA by real-time PCR; type: cell-based; settings: palmitate 0.5 mM + inhibitor 1 μM, 48 h
Description: Huh-7 cells were maintained in a humid atmosphere of 5% CO2 at 37° C. in high glucose (25 mM) Dulbecco's modified Eagle's medium supplemented with 10% heat-inactivated fetal bovine serum, 1% of penicillin/streptomycin (10.000 units/mL of penicillin and 10.000 μg/mL of streptomycin) and 1% of amphotericin B (250 μg/mL).
Huh-7 cells were serum-starved overnight prior treatment. […] For RNA extraction, cells were pre-treated with the inhibitors (final concentration 1 μM) for 1 hour before treatment with palmitate (final concentration 0.5 mM) and inhibitors (final concentration 1 μM). For each condition, at least 3 replicates were performed. Following 48 hours of incubation, RNA were extracted as described below.
Total RNA in hepatocytes was harvested by TRIsure (Bioline) according to the manufacturer's instructions. The extracted RNA was dissolved in RNase-free water and concentrations of total RNA were quantified using a NanoDrop 2000c spectrophotometer (Thermo Scientific). First-stranded cDNA was synthesized from 0.5 μg total RNA (Life Technologies). […] The PCR reaction contained 10 ng of reverse-transcribed RNA, 2× IQ™ SYBRGreen Supermix (BioRad, Barcelona, Spain) and 900 nmol/L concentration of each primer. Optical primer amplification efficiency for each primer set was assessed and a dissociation protocol was carried out to assure a single PCR product. PCR assays were performed on a MiniOpticon™ Real-Time PCR system (BioRad). Thermal cycling conditions were as follows: activation of Taq DNA polymerase at 95° C. for 10 min, followed by 40 cycles of amplification at 95° C. for 15 sec and 60° C. for 1 min. The relative levels of specific mRNA were estimated from the value of the threshold cycle (Ct) of the real-time PCR adjusted by that of a housekeeping gene (GAPDH) through the formula […] (ΔCt=Gene of interest Ct-GAPDH Ct). Cf.

[2] = Determination of water solubility (nephelometry); type: physicochemical; settings: aqueous with cosolvent or surfactant or cyclodextrin, kinetic from dmso stock; 5% DMSO: 95% PBS buffer, 37° C., read after 2 and 4 h; read-out: S (solubility)

Question: With `O=C(N[C@]12CC3C[C@@H](C[C@H](C3)O1)C2)N[C@H]1CC[C@H](Oc2ccc(C(=O)O)cc2)CC1` [Ig, trans-1-(2-oxaadamantan-1-yl)-3-[4-(4-carboxyphenoxy)cyclohexyl]urea] as the compound, how does the IC50 (recombinant human sEH) read?
Answer: Its IC50 is 13.4 ± 4 nM.

Question: What about the CC50 at 72 h [1] of the same compound?
Answer: The CC50 at 72 h was > 100 µM.

Question: What about the “Level of CHOP mRNA” value (Huh-7 cells; control (CT) = 100.0, PAL alone 224.5) of the same compound?
Answer: Its value is 147.6 ± 15.9^(##).

Question: What about the “Level of BiP mRNA” value (Huh-7 cells; control (CT) = 100.0, PAL alone 242.9) of the same compound?
Answer: The value was 174.9 ± 31.4^(#).

Question: What about the “Level of ATF3 mRNA” value (Huh-7 cells; control (CT) = 100.0, PAL alone 585.5) of the same compound?
Answer: Its value is 286.7 ± 59.9^(###).

Question: And the solubility [2]?
Answer: Its solubility is > 100 µM.
